According to article PMC9698716, “From Serendipity to Rational Identification of the 5,6,7,8-Tetrahydrobenzo[4,5]thieno[2,3-d]pyrimidin-4(3H)-one Core as a New Chemotype of AKT1 Inhibitors for Acute Myeloid Leukemia” (Pharmaceutics, 2022):

What was measured:
OCI-AML3 [1] = test: Cell growth, viable cell count by trypan blue exclusion; assay type: cell-based, human; conditions: OCI-AML3, 5 µM, at 48 and 72 h
cleaved-PARP = test: Western blot of apoptosis marker in AML cell lines; assay type: cell-based, human; conditions: 5 µM, 48 h
Method: Immunoblotting was conducted as described previously. Briefly, fresh cell pellets (0.2–0.5 × 10^6/test for AML cell lines) were dissolved directly in 30–60 μL of Laemmli sample buffer 1× (1.5 M Tris-HCl pH 6.8, glycerol, β-mercaptoethanol, SDS, bromophenol blue) and boiled at 95 °C for 5 min. The proteins were separated by SDS-polyacrylamide gel electrophoresis (SDS-PAGE) on Precast 4–15% gradient gels (Biorad, Hercules, CA, USA) transferred onto nitrocellulose membranes (GE Healthcare, Piscataway, NJ, USA) and probed with specific primary antibodies followed by horseradish peroxidase-conjugated secondary antibodies (GE Healthcare Lifesciences). The polypeptides were visualized using enhanced chemiluminescence (Luminata Crescendo, Merck Millipore, Burlington, MA, USA) according to the manufacturer’s instructions. The bands were visualized using the Biorad Chemidoc and the images were processed using the image lab software (Biorad) and Adobe Photoshop (Ps CC 2019). β-actin expression levels were used as a control for protein loading, as indicated. […]

[2] = Intrinsic fluorescence assay; assay type: physicochemical; conditions: excitation/emission 485–535 nm, AKT1 assay buffer, 2 h 37 °C
Method: Compound T126 was serially diluted in 384-well black plates with Hepes 100 mM, DMSO 4%, Brij 0.003%, Tween 20 0.004%, MgCl2 10 mM, at a pH = 7.5 and incubated for 2 h at 37 °C. After the incubation time the intensity of fluorescence (λexc: 485 nm; λemm: 535 nm) was detected in a Tecan M1000 Pro.

SKM-1 = test: CellTiter Blue cell viability assay; assay type: cell-based, human; conditions: Homo sapiens, SKM-1, 48 h; read-out: cellular IC50
Description: (§1) The human AML cell lines, OCI-AML3 (carrying the NPM1 gene mutation A and the DNMT3A^R882C mutation), IMS-M2 (carrying the NPM1 gene mutation A), OCI-AML2 (with the wild-type NPM1 and DNMT3A^R635W mutation), and SKM-1 and MOLM-13 (with the wild-type NPM1) were previously reported. The cell lines were purchased from the Deutsche Sammelung von Mikroorganismen und Zellkulturen (DSMZ) (Braunschweig, Germany) cell bank and maintained according to the vendors’ instructions. Briefly, cultured cells were split every 3 days and maintained in an exponential growth phase. The cell lines were tested for mycoplasma using the Universal Mycoplasma Detection Kit (ATCC). The OCI-AML3 were grown in α-MEM supplemented with 20% fetal bovine serum, 100 U/mL penicillin, and 100 μg/mL streptomycin (P/S), and all other cell lines were cultured in RPMI and supplemented with a 10–20% fetal bovine serum and 100 U/mL penicillin and 100 μg/mL streptomycin. The cells were kept at 37 °C in a 5% CO2 incubator. Prior to screening, the appropriate cell concentration for all cell lines was determined. For the cell lines’ treatments, cells were maintained as follows: OCI-AML3 at 0.25 × 10^6/mL, OCI-AML2 and IMS-M2 at 0.35 × 10^6/mL, and SKM-1 and MOLM-13 at 0.5 × 10^6/mL. The compounds were re-suspended at 10 mM stock in DMSO. Further dilutions were performed in phosphate-buffer-saline (PBS) for pharmacological experiments. The cells were exposed to compounds at different concentrations for the indicated time points and sampled as described below. Briefly, the cells (4 × 10^5/mL) were seeded in 384-well plate and treated for 48 h with various concentrations (0.001 μM to 100 μM) of either one of the compounds, T101, T126, and T159, or NSC348884, as a positive control. Each plate included DMSO at 0.1% as a negative control. The metabolic cell activity was measured by using the CellTiter Blue proliferation agent (Roche) as described in the manufacturer’s procedure. Briefly, CellTiter Blue solution (Resazaurin) was added to each well and the plates were incubated at 37 °C with 5% CO2 for 4 h. During the incubation time, the resazurin is reduced to fluorescent resorufin in metabolically and proliferating living cells. The fluorescence intensity was measured using the automated Tecan plate reader (Tecan Group Ltd., Männedorf, Switzerland) at an excitation/emission wavelength of 531/572 nm. The fluorescence readouts were reported as relative fluorescence units (RFU) and read on a luminescence plate reader (Infinite 200 Pro, Tecan, CA, USA). The dose response curves ([…] (IC50)) were obtained by non-linear regression analysis using the GraphPad Prism 5.0 program. The concentration is shown as a logarithmic function. All the experiments were performed at least in triplicate, with technical repetition. The results are expressed as mean ± standard error of the mean (SEM). For the Colony Forming Unit (CFU) assay, 10 × 10^6 CD34+ human hematopoietic progenitors were received from unique healthy donors, upon signed informed consent, and were cultured in SFEM II (Serum-free medium) and P/S at a density of 1 × 10^6/mL with cytokines that are important for cell division and self-renewal: fms-like tyrosine kinase 3 (FLT3)-ligand, FLT3L (100 ng/mL), Stem Cell Factor, SCF (100 ng/mL) and Trombopoietin, and TPO (50 ng/mL) for 48 h before plating them on a Methocult medium.

OCI-AML2 = test: CellTiter Blue cell viability assay; assay type: cell-based, human; conditions: Homo sapiens, OCI-AML2, 48 h; read-out: cellular IC50
Description: as §1

OCI-AML3 [3] = test: CellTiter Blue cell viability assay; assay type: cell-based, human; conditions: Homo sapiens, OCI-AML-3; OCI-AML3, 48 h; read-out: cellular IC50
Description: as §1

IMS-M2 = test: CellTiter Blue cell viability assay; assay type: cell-based, human; conditions: Homo sapiens, IMS-M2, 48 h; read-out: cellular IC50
Description: as §1

MOLM-13 = test: CellTiter Blue cell viability assay; assay type: cell-based, human; conditions: Homo sapiens, MOLM-13, 48 h; read-out: cellular IC50
Description: as §1

SMILES: O=c1[nH]c(-c2ccc(O)c(O)c2)nc2sc3c(c12)CCCC3 [T126]
- cell growth inhibition (OCI-AML3 [1]): significant cell growth inhibition
- cleaved-PARP (marker of apoptosis) (cleaved-PARP): detected
- intrinsic fluorescence [2]: not fluorescent
- IC50 (SKM-1): 6.9 µM
- IC50 (OCI-AML2): 2.4 µM
- IC50 (OCI-AML3 [3]): 4.2 µM
- IC50 (IMS-M2): 4.3 µM
- IC50 (MOLM-13): 9.2 µM
